Test results as given in US8829007B2 (priority 2009, dated 2014).
Read-outs that look alike come from different tables or passages of the source.

What was measured:
[1] = tested on: influenza A virus (A/PR/8/34); experiment: microbe, parasite or virus in culture; format: cell-based
[2] = tested on: A/PR/8/34 influenza virus; experiment: microbe, parasite or virus in culture; format: cell-based
[3] = Influenza A virus, PR/8, MDCK, mean all, MDCK cells infected with A/PR/8/34, cell protection (CPE), read-out: IC50
[4] = Influenza A virus, PR/8, MDCK, mean all, bDNA viral RNA in MDCK cells infected with A/PR/8/34, read-out: EC50
[5] = mean all, MDCK cells infected with A/PR/8/34, cell protection (CPE), read-out: IC50
[6] = mean all, bDNA viral RNA in MDCK cells infected with A/PR/8/34, read-out: EC50
[7] = Influenza A virus, PR/8, MDCK, mean all, A/PR/8/34 infected MDCK cells, cell protection (CPE), read-out: IC50
[8] = Influenza A virus, PR/8, mean all, A/PR/8/34 influenza virus replication, bDNA, read-out: EC50
[9] = mean all, A/PR/8/34 influenza virus replication, bDNA, read-out: EC50
[10] = Influenza A virus, PR/8, MDCK, mean all, survival of A/PR/8/34 infected MDCK cells (CPE assay), read-out: IC50
[11] = Influenza A virus, PR/8, mean all, replication of A/PR/8/34 influenza virus (bDNA assay), read-out: EC50
[12] = Influenza A virus, PR/8, MDCK, MDCK cells, A/PR/8/34, ATP readout, mean all, read-out: Cell Flu, MDCK protection, ATP (All: IC50: uM)(Mean (All))
[13] = Influenza A virus, PR/8, 30 h, HA(−) 30 hr, A/PR/8, bDNA, mean all, read-out: Cell Influenza HA(−) 30 hr A/PR/8 bDNA:bDNA EC50 uM(Mean (All))

Molecule `OCC(O)C[C@@]1(O)CCCC(Nc2nc(-c3c[nH]c4ncc(Cl)cc34)ncc2F)C1` (stereo partly drawn) [Compound 718] has an IC50 [1, 3] of under 5 µM and an EC50 [2, 4] of under 5 µM.
With `O=C(NCC1CC1)C1CCCC(Nc2nc(-c3c[nH]c4ncc(Cl)cc34)ncc2F)C1` (stereo not drawn) [Compound 719] the IC50 [1, 5] was under 5 µM and the EC50 [2, 6] was under 5 µM.
`COC1CN(C(=O)C2CCCC(Nc3nc(-c4c[nH]c5ncc(Cl)cc45)ncc3F)C2)C1` (stereo not drawn) [Compound 720] gave an IC50 [1, 5] of under 5 µM and an EC50 [2, 6] of under 5 µM.
`CCOC(=O)C(=O)N(C(=O)OC(C)(C)C)C1CC2CC(C(=O)OC)C1C2` (stereo not drawn) [Compound 721] showed an IC50 [1, 5] of under 5 µM and an EC50 [2, 6] of under 5 µM.
With `CC(C)(C)C(=O)NC1CCCC(Nc2nc(-c3c[nH]c4ncc(Cl)cc34)ncc2F)C1` (stereo not drawn) [Compound 723] the IC50 [1, 5] was under 5 µM and the EC50 [2, 6] was under 5 µM.
`N#CCC(=O)NC1CCCC(Nc2nc(-c3c[nH]c4ncc(Cl)cc34)ncc2F)C1` (stereo not drawn) [Compound 724] showed an IC50 [1, 5] of under 5 µM and an EC50 [2, 6] of under 5 µM.
`CN(C)CC(=O)NC1CCCC(Nc2nc(-c3c[nH]c4ncc(Cl)cc34)ncc2F)C1` (stereo not drawn) [Compound 725] gave an IC50 [1, 5] of under 5 µM and an EC50 [2, 6] of under 5 µM.
Work on `O=C(NC1CCCC(Nc2nc(-c3c[nH]c4ncc(Cl)cc34)ncc2F)C1)C1CCC1` (stereo not drawn) [Compound 726] yielded an IC50 [1, 5] of under 5 µM and an EC50 [2, 6] of under 5 µM.
For `CC(C)(C)CC(=O)NC1CCCC(Nc2nc(-c3c[nH]c4ncc(Cl)cc34)ncc2F)C1` (stereo not drawn) [Compound 728], the IC50 [1, 5] was under 5 µM and the EC50 [2, 6] was under 5 µM.
`O=C(CN1CCCCC1)NC1CCCC(Nc2nc(-c3c[nH]c4ncc(Cl)cc34)ncc2F)C1` (stereo not drawn) [Compound 729] gave an IC50 [1, 5] of under 5 µM and an EC50 [2, 6] of under 5 µM.
`O=C(CN1CCOCC1)NC1CCCC(Nc2nc(-c3c[nH]c4ncc(Cl)cc34)ncc2F)C1` (stereo not drawn) [Compound 730] gave an IC50 [1, 5] of under 5 µM and an EC50 [2, 6] of under 5 µM.
`O=C(O)C1CCC(Nc2nc(-c3c[nH]c4ncc(Cl)cc34)ncc2F)CC1` (stereo not drawn) [Compound 731] gave an IC50 [1, 5] of over 10 µM and an EC50 [2, 6] of over 3.3 µM.
Molecule `CNC(=O)C[C@]1(O)CCCC(Nc2nc(-c3c[nH]c4ncc(Cl)cc34)ncc2F)C1` (stereo partly drawn) [Compound 751] has an IC50 [1, 3] of under 5 µM and an EC50 [2, 4] of under 5 µM.
With `CCNC(=O)[C@]1(O)CCC[C@H](Nc2nc(-c3c[nH]c4ncc(Cl)cc34)ncc2F)C1` [Compound 779, (1S,3S)-3-[[2-(5-chloro-1H-pyrrolo[2,3-b]pyridin-3-yl)-5-fluoro-pyrimidin-4-yl]amino]-N-ethyl-1-hydroxy-cyclohexanecarboxamide] the IC50 [1, 7] was under 5 µM and the EC50 [2, 8] was under 5 µM.
Molecule `COCCNC(=O)[C@@H]1CCC[C@H](Nc2nc(-c3c[nH]c4ncc(Cl)cc34)ncc2F)C1` [Compound 789] has an IC50 ([1]; read-out: IC50) of under 5 µM and an EC50 [2, 9] of under 5 µM.
Molecule `O=c1[nH]c(=O)n([C@@H]2CCC[C@H](Nc3nc(-c4c[nH]c5ncc(Cl)cc45)ncc3F)C2)o1` [Compound 796] has an IC50 ([1]; read-out: IC50) of under 5 µM and an EC50 [2, 9] of under 5 µM.
Molecule `O=c1[nH]c(=O)n([C@H]2CCC[C@H](Nc3nc(-c4c[nH]c5ncc(Cl)cc45)ncc3F)C2)o1` [Compound 798] has an IC50 ([1]; read-out: IC50) of under 5 µM and an EC50 [2, 9] of under 5 µM.
For `CCNC(=O)C1CCCC(Nc2nc(-c3c[nH]c4ncc(Cl)cc34)ncc2F)C1O` (stereo not drawn) [Compound 815, 3-[[2-(5-chloro-1H-pyrrolo[2,3-b]pyridin-3-yl)-5-fluoro-pyrimidin-4-yl]amino]-N-ethyl-2-hydroxy-cyclohexanecarboxamide], the IC50 [1, 7] was under 5 µM and the EC50 [2, 8] was under 5 µM.
`C[C@@]1(C(=O)O)CCCC(Nc2nc(-c3c[nH]c4ncc(Cl)cc34)ncc2F)C1` (stereo partly drawn) [Compound 826] was tested, and the IC50 [1, 7] was under 5 µM and the EC50 [2, 8] was under 5 µM.
For `CO[C@@H]1CCC[C@H](Nc2nc(-c3c[nH]c4ncc(Cl)cc34)ncc2F)[C@H]1O` [Compound 831, (1R,2S,6R)-2-(2-(5-chloro-1H-pyrrolo[2,3-b]pyridin-3-yl)-5-fluoropyrimidin-4-ylamino)-6-methoxycyclohexanol], the IC50 [1, 7] was under 5 µM and the EC50 [2, 8] was under 5 µM.
`Fc1cnc(-c2c[nH]c3ncc(Cl)cc23)nc1N[C@H]1CCC[C@@H](c2nnn[nH]2)C1` [Compound 855, N-((1S,3R)-3-(1H-tetrazol-5-yl)cyclohexyl)-2-(5-chloro-1H-pyrrolo[2,3-b]pyridin-3-yl)-5-fluoropyrimidin-4-amine] showed an IC50 [1, 7] of under 5 µM and an EC50 [2, 8] of under 5 µM.
Molecule `CC(=O)NC[C@]1(O)CCC[C@H](Nc2nc(-c3c[nH]c4ncc(Cl)cc34)ncc2F)C1` [Compound 857] has an IC50 [1, 7] of under 5 µM and an EC50 [2, 8] of under 5 µM.
Molecule `C[C@@]1(O)CCC[C@H](Nc2nc(-c3c[nH]c4ncc(Cl)cc34)ncc2F)[C@H]1O` [Compound 860] has an IC50 ([1]; read-out: IC50) of under 5 µM and an EC50 [2, 9] of under 5 µM.
Molecule `N#CC1(C(=O)N[C@@H]2CCC[C@H](Nc3nc(-c4c[nH]c5ncc(F)cc45)ncc3F)C2)CC1` [Compound 871] has an IC50 [1, 7] of under 5 µM and an EC50 [2, 8] of under 5 µM.
`N=C(N)N1CCC[C@H](Nc2nc(-c3c[nH]c4ncc(Cl)cc34)ncc2F)C1` [Compound 881] was tested, and the IC50 [1, 7] was over 10 µM and the EC50 [2, 8] was over 3.3 µM.
With `CS(=O)(=O)C[C@@]1(O)CCC[C@H](Nc2nc(-c3c[nH]c4ncc(Cl)cc34)ncc2F)C1` [Compound 886] the IC50 ([1]; read-out: IC50) was under 5 µM and the EC50 ([2]; mean all, replication of A/PR/8/34 influenza virus (bDNA assay), read-out: EC50) was under 5 µM.
`O=C1CCCN1[C@@H]1CCC[C@H](Nc2nc(-c3c[nH]c4ncc(Cl)cc34)ncc2F)C1` [Compound 956] showed an IC50 [1, 10] of under 5 µM and an EC50 [2, 11] of under 5 µM.
Molecule `CN1CCN([C@@H]2CCCC(Nc3nc(-c4c[nH]c5ncc(Cl)cc45)ncc3F)C2)C1=O` (stereo partly drawn) [Compound 958] has an IC50 [1, 10] of under 5 µM and an EC50 [2, 11] of under 5 µM.
Work on `O=C1CC2(CCC[C@H](Nc3nc(-c4c[nH]c5ncc(Cl)cc45)ncc3F)C2)CN1` (stereo partly drawn) [Compound 969, (7S)-7-(2-(5-chloro-1H-pyrrolo[2,3-b]pyridin-3-yl)-5-fluoropyrimidin-4-ylamino)-2-azaspiro[4.5]decan-3-one] yielded an IC50 [1, 10] of under 5 µM and an EC50 [2, 11] of under 5 µM.
For `CN1C[C@@]2(CCC[C@H](Nc3nc(-c4c[nH]c5ncc(Cl)cc45)ncc3F)C2)OC1=O` [Compound 971, (5S,7S)-7-(2-(5-chloro-1H-pyrrolo[2,3-b]pyridin-3-yl)-5-fluoropyrimidin-4-ylamino)-3-methyl-1-oxa-3-azaspiro[4.5]decan-2-one], the IC50 [1, 10] was under 5 µM and the EC50 [2, 11] was under 5 µM.
With `N#CC[C@]1(O)CCC[C@H](Nc2nc(-c3c[nH]c4ncc(F)cc34)ncc2F)C1` [Compound 979, 2-((1S,3S)-3-(5-fluoro-2-(5-fluoro-1H-pyrrolo[2,3-b]pyridin-3-yl)pyrimidin-4-ylamino)-1-hydroxycyclohexyl)ethanenitrile] the IC50 [1, 12] was under 5 µM and the EC50 [2, 13] was under 5 µM.
In the case of `O[C@H]1[C@H](O)CCCC[C@@H]1Nc1nc(-c2c[nH]c3ncc(F)cc23)ncc1F` [Compound 984], the IC50 [1, 12] is reported as under 5 µM and the EC50 [2, 13] is reported as under 5 µM.
In the case of `O=C(O)[C@H]1C2CCC(CC2)[C@@H]1Nc1nc(-c2c[nH]c3ncc(F)cc23)ncc1F` [Compound 1070, (2S,3S)-3-((2-(5-fluoro-1H-pyrrolo[2,3-b]pyridin-3-yl)-5-fluoropyrimidin-4-yl)amino)bicyclo[2.2.2]octane-2-carboxylic acid], the IC50 [1, 12] is reported as under 5 µM and the EC50 [2, 13] is reported as under 5 µM.
In the case of `COc1c(F)cnc2[nH]cc(-c3ncc(F)c(N[C@H]4CCC[C@@H](NC(=O)N5CC[C@@H](F)C5)C4)n3)c12` [Compound 1104, (R)-3-fluoro-N-((1R,3S)-3-((5-fluoro-2-(5-fluoro-4-methoxy-1H-pyrrolo[2,3-b]pyridin-3-yl)pyrimidin-4-yl)amino)cyclohexyl)pyrrolidine-1-carboxamide], the IC50 [1, 12] is reported as under 5 µM and the EC50 [2, 13] is reported as under 5 µM.
`N=C(N)N[C@@H]1CCC[C@H](Nc2nc(-c3c[nH]c4ncc(F)cc34)ncc2F)C1` [Compound 1143, 1-((1R,3S)-3-(5-fluoro-2-(5-fluoro-1H-pyrrolo[2,3-b]pyridin-3-yl)pyrimidin-4-ylamino)cyclohexyl)guanidine] showed an IC50 [1, 12] of under 5 µM and an EC50 [2, 13] of under 5 µM.
`O=C(O)c1coc(N[C@@H]2CCC[C@H](Nc3nc(-c4c[nH]c5ncc(F)cc45)ncc3F)C2)n1` [Compound 1144, 2-((1R,3S)-3-(5-fluoro-2-(5-fluoro-1H-pyrrolo[2,3-b]pyridin-3-yl)pyrimidin-4-ylamino)cyclohexylamino)oxazole-4-carboxylic acid] showed an IC50 [1, 12] of under 5 µM and an EC50 [2, 13] of under 5 µM.
`O=C(O[C@H]1CCC[C@@H](Nc2nc(-c3c[nH]c4ncc(F)cc34)ncc2F)C1)N1CC[C@H](F)C1` [Compound 1151, (S)-(1S,3R)-3-((5-fluoro-2-(5-fluoro-1H-pyrrolo[2,3-b]pyridin-3-yl)-pyrimidin-4-yl)amino)cyclohexyl 3-fluoropyrrolidine-1-carboxylate] showed an IC50 [1, 12] of under 5 µM and an EC50 [2, 13] of under 5 µM.
`O=C(O)[C@H]1C2CCC(CC2)[C@@H]1Nc1nc(-c2c[nH]c3ncc(Cl)cc23)ncc1F` [Compound 1184, (2S,3S)-3-((2-(5-chloro-1H-pyrrolo[2,3-b]pyridin-3-yl)-5-fluoropyrimidin-4-yl)amino)bicyclo[2.2.2]octane-2-carboxylic acid] gave an IC50 [1, 12] of under 5 µM and an EC50 [2, 13] of under 5 µM.
`C[C@H]1C[C@@H](NC(=O)N2CC[C@H](F)C2)C[C@@H](Nc2nc(-c3c[nH]c4ncc(F)cc34)ncc2F)C1` [compound 1067] was tested, and the IC50 [1, 12] was under 5 µM and the EC50 [2, 13] was under 5 µM.
